Measured values reported in PubChem BioAssay AID1845219 (Molecular Pharmacology Branch, DTP, NCI, 2023).

Tested on: SYO-1 tumor spheroids, viability % test/control
Test: Anticancer human tumor SYO-1 cell line growth inhibition;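 note: spheroids exposed to agents for 7 days before viability read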;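 for viability, T/C: 100% = DMSO vehicle control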
Settings: spheroids with HUVEC and MSC; for IC50: curve of first compound; for viability, T/C: stronger effect = lower value
Description: Multicellular complex tumor spheroid response to DNA repair inhibitors in combination with DNA-damaging drugs
This study explores the anticancer activities of DNA-damaging drugs and inhibitors of DNA damage repair, both as single agents and in combinations. Complex tumor spheroids comprised of malignant cells, endothelial cells and mesenchymal stem cells served as an in vitro model for human solid tumors. This model system incorporates physiologically relevant features and patient-derived or established malignant cell lines with clinically relevant genetic alterations from many tumor types. Twenty-six patient-derived or established malignant cell lines were evaluated representing sarcoma, melanoma, small cell lung cancer (SCLC), non-small cell lung cancer (NSCLC), as well as bladder, ovarian and pancreatic cancers. The concentration ranges selected for each drug and investigational agent were based upon clinically achievable concentrations if the clinical Cmax of the agent was known.
Compounds. The drugs and compounds olaparib (NSC753686), talazoparib (NSC767125), berzosertib (NSC777718), elimusertib (NSC800525), nedisertib (NSC802822), VX-984 (NSC792969), AZD-1390 (NSC803789), temozolomide (NSC362856), topotecan (NSC609699), trabectedin (NSC813783), staurosporine (NSC755774), and gemcitabine (NSC613327) were obtained from the National Cancer Institute (NCI) Developmental Therapeutics Program Chemical Repository. The FDA-approved anticancer drug set is available from the Developmental Therapeutics Program at https://dtp.cancer.gov/organization/dscb/obtaining/available_plates.htm. […] The stock solutions were prepared in dimethyl sulfoxide (DMSO, Sigma-Aldrich, St. Louis, MO, cat. D2650) at 400-fold the tested concentration and stored at -70 degrees C. Prior to their use, the stock solutions were diluted in fresh medium and the final DMSO concentration in the assay was 0.25% (v/v). All drugs and investigational agents were tested over a range starting from a high concentration at or near the clinical Cmax and decreasing in half-log increments. If the clinical Cmax for an agent had not been determined, the highest concentration tested was 10 microM.
Cell Lines. The patient-derived cancer cell (PDC) lines: 156681-154-R-J1-PDC, 283228-195-R-J1-PDC, 287954-098-R-J1-PDC, 292921-168-R-J2-PDC, 349418-098-R-PDC, 425362-245-T-J1-PDC, 556581-035-R-J1-PDC, and BL0293-F563-PDC were received from the NCI Patient-Derived Models Repository (PDMR, https://pdmr.cancer.gov). The established cell lines HS-SY-2 (RRID:CVCL_8719), MPNST, and SYO-1 (RRID:CVCL_7146) were obtained from the Sloan Kettering Institute. The alveolar soft parts sarcoma cell line ASPS-1 (RRID:CVCL_S738) was established at the NCI and grown from internal seed stocks. The following established cell lines were purchased from the American Type Culture Collection (ATCC, Manassas, VA): G-401 (ATCC, cat. CRL-1441, RRID:CVCL_0270), SW982 (ATCC, cat. HTB-93, RRID:CVCL_1734), VA-ES-BJ (ATCC, cat. CRL-2138, RRID:CVCL_1785), NCI-H719 (ATCC, cat. CRL-5837, RRID:CVCL_1582), NCI-H196 (ATCC, cat. CRL-5823, RRID:CVCL_1509), NCI-H841 (ATCC, cat. CRL-5845, RRID:CVCL_1595), NCI-H1618 (ATCC, cat. CRL-5879, RRID:CVCL_1480), NCI-H1876 (ATCC, cat. CRL-5902, RRID:CVCL_1503), DMS 114 (ATCC, cat. CRL-2066; RRID:CVCL_1174), NCI-H211 (ATCC, cat. CRL-5824; RRID:CVCL_1529), and SW 1271 (ATCC, cat. CRL-2177, RRID:CVCL_1716). The small cell lung cancer cell line COR-L88 was purchased from Sigma-Aldrich (cat. 92031917-1VL, RRID:CVCL_1141). The non-small cell lung cancer cell lines NCI-H226 (RRID:CVCL_1544) and NCI-H322M (RRID:CVCL_1557) were established at the NCI and grown from internal seed stocks. Pooled donor human umbilical vein endothelial cells (HUVEC, Lonza, cat. CC-2519) and human mesenchymal stem cells (hMSC, Lonza, cat. PT-2501) were purchased from Lonza (Walkersville, MD).
Cell Culture. All cells were maintained in an incubator at 37 degrees C and 5% CO2 with 95% humidity. […]

[1] = second compound 0.003 µM, first compound 0.00949 µM
[2] = second compound 0.003 µM, first compound 0.03 µM
[3] = second compound 0.003 µM, first compound 0.0949 µM
[4] = second compound 0.003 µM, first compound 0.3 µM
[5] = second compound 0.003 µM, first compound 0.949 µM
[6] = second compound 0.003 µM, first compound 3 µM
[7] = second compound 0.00949 µM, first compound 0.00949 µM
[8] = second compound 0.00949 µM, first compound 0.03 µM
[9] = second compound 0.00949 µM, first compound 0.0949 µM
[10] = second compound 0.00949 µM, first compound 0.3 µM
[11] = second compound 0.00949 µM, first compound 0.949 µM
[12] = second compound 0.00949 µM, first compound 3 µM
[13] = second compound 0.03 µM, first compound 0.00949 µM
[14] = second compound 0.03 µM, first compound 0.03 µM
[15] = second compound 0.03 µM, first compound 0.0949 µM
[16] = second compound 0.03 µM, first compound 0.3 µM
[17] = second compound 0.03 µM, first compound 0.949 µM
[18] = second compound 0.03 µM, first compound 3 µM
[19] = second compound 0.0949 µM, first compound 0.00949 µM
[20] = second compound 0.0949 µM, first compound 0.03 µM
[21] = second compound 0.0949 µM, first compound 0.0949 µM
[22] = second compound 0.0949 µM, first compound 0.3 µM
[23] = second compound 0.0949 µM, first compound 0.949 µM
[24] = second compound 0.0949 µM, first compound 3 µM
[25] = second compound 0.3 µM, first compound 0.00949 µM
[26] = second compound 0.3 µM, first compound 0.03 µM
[27] = second compound 0.3 µM, first compound 0.0949 µM
[28] = second compound 0.3 µM, first compound 0.3 µM
[29] = second compound 0.3 µM, first compound 0.949 µM
[30] = second compound 0.3 µM, first compound 3 µM

Row | SMILES | IC50 (second compound 0.003 µM) [nM] | IC50 (second compound 0.00949 µM) [nM] | IC50 (second compound 0.03 µM) [nM] | IC50 (second compound 0.0949 µM) [nM] | IC50 (second compound 0.3 µM) [nM] | viability, T/C [3] [%] | viability, T/C [4] [%] | viability, T/C [5] [%] | viability, T/C [6] [%] | viability, T/C [9] [%] | viability, T/C [10] [%] | viability, T/C [11] [%] | viability, T/C [12] [%] | viability, T/C [15] [%] | viability, T/C [16] [%] | viability, T/C [17] [%] | viability, T/C [18] [%] | viability, T/C [21] [%] | viability, T/C [22] [%] | viability, T/C [23] [%] | other results
1 | CNCc1ccc(-c2cc(-c3nc(-c4ccc(S(=O)(=O)C(C)C)cc4)cnc3N)on2)cc1 + CC[C@@]1(O)C(=O)OCc2c1cc1n(c2=O)Cc2cc3c(CN(C)C)c(O)ccc3nc2-1 | 24.5 | < 9.49 | < 9.49 | < 9.49 | < 9.49 | 3.75 | 2.18 | 0.36 | 0.11 | 2.57 | 1.53 | 0.14 | 0.09 | 2.63 | 2.32 | 0.17 | 0.1 | 2.21 | 1.43 | 0.17 | viability, T/C [1]: 85.4%; viability, T/C [2]: 42.5%; viability, T/C [7]: 4.64%; viability, T/C [8]: 3.26%; viability, T/C [13]: 1.95%; viability, T/C [14]: 2.01%; viability, T/C [19]: 1.79%; viability, T/C [20]: 1.82%; viability, T/C [24]: 0.11%; viability, T/C [25]: 1.93%; viability, T/C [26]: 1.65%; viability, T/C [27]: 1.95%; viability, T/C [28]: 1.63%; viability, T/C [29]: 0.24%; viability, T/C [30]: 0.17%
2 | Cn1ncnc1[C@H]1c2n[nH]c(=O)c3cc(F)cc(c23)N[C@@H]1c1ccc(F)cc1 + CC[C@@]1(O)C(=O)OCc2c1cc1n(c2=O)Cc2cc3c(CN(C)C)c(O)ccc3nc2-1 | < 9.49 | < 9.49 | < 9.49 | < 9.49 | < 9.49 | 1.89 | 1.63 | 1.45 | 1.47 | 1.68 | 1.41 | 1.63 | 1.37 | 1.7 | 1.53 | 1.32 | 1.28 | 1.72 | 1.66 | 1.34 | viability, T/C [1]: 3.29%; viability, T/C [2]: 2.24%; viability, T/C [7]: 1.7%; viability, T/C [8]: 1.69%; viability, T/C [13]: 1.69%; viability, T/C [14]: 1.49%; viability, T/C [19]: 1.59%; viability, T/C [20]: 1.89%; viability, T/C [24]: 1.13%; viability, T/C [25]: 1.71%; viability, T/C [26]: 1.64%; viability, T/C [27]: 1.52%; viability, T/C [28]: 1.37%; viability, T/C [29]: 1.3%; viability, T/C [30]: 1.04%
3 | O=C(c1cc(Cc2n[nH]c(=O)c3ccccc23)ccc1F)N1CCN(C(=O)C2CC2)CC1 + CC[C@@]1(O)C(=O)OCc2c1cc1n(c2=O)Cc2cc3c(CN(C)C)c(O)ccc3nc2-1 | < 94.9 | < 94.9 | < 94.9 | < 94.9 | < 94.9 | 40.5 | 24.1 | 8.02 | 2.93 | 2.56 | 2.35 | 2.18 | 1.79 | 1.56 | 1.76 | 1.49 | 1.64 | 1.91 | 1.81 | 1.99 | viability, T/C (second compound 0.003 µM, first compound 9.49 µM): 2.62%; viability, T/C (second compound 0.003 µM, first compound 30 µM): 2.56%; viability, T/C (second compound 0.00949 µM, first compound 9.49 µM): 2.63%; viability, T/C (second compound 0.00949 µM, first compound 30 µM): 2.34%; viability, T/C (second compound 0.03 µM, first compound 9.49 µM): 1.62%; viability, T/C (second compound 0.03 µM, first compound 30 µM): 1.56%; viability, T/C [24]: 1.8%; viability, T/C (second compound 0.0949 µM, first compound 9.49 µM): 1.74%; viability, T/C (second compound 0.0949 µM, first compound 30 µM): 1.82%; viability, T/C [27]: 2.04%; viability, T/C [28]: 1.92%; viability, T/C [29]: 2.02%; viability, T/C [30]: 1.92%; viability, T/C (second compound 0.3 µM, first compound 9.49 µM): 1.99%; viability, T/C (second compound 0.3 µM, first compound 30 µM): 2.21%
